Laboratory results: patent publication US11866430B2, “Naphthyridinone compounds useful as T cell activators” (priority 2018, dated 2024)
pIC50: −log10 of the molar value. Where two headings read alike, the source gives them in different places.

Legend:
[1] = tested on: pre-activated CD4 T cells and Raji cells; test: Raji CD4 T Cell IL2 Assay; type: cell-based
human DGKζ [2] = molecular target: T1, human DGKζ (Homo sapiens (Human), UniProt Q13574); test: DGKζ LIPGLO assay (extruded liposome substrate); type: biochemical; conditions: extruded liposome substrate; read-out: DGKζ LIPGLO IC50
Method: (§1) The DGKα and DGKζ reactions were performed using either extruded liposome (DGKα and DGKζ LIPGLO assays) or detergent/lipid micelle substrate (DGKα and DGKζ assays). The reactions were carried out in 50 mM MOPS pH 7.5, 100 mM NaCl, 10 mM MgCl2, 1 μM CaCl2, and 1 mM DTT (assay buffer). The reactions using a detergent/lipid micelle substrate also contained 50 mM octyl B-D-glucopyranoside.
(§2) A 5 mL enzyme/substrate solution at 2× final reaction concentration was prepared by combining 2.5 mL 4× enzyme solution (20 nM DGKα or DGKζ (prepared as described below) in assay buffer) and 2.5 mL of either 4× liposome or 4× detergent/lipid micelle solution (compositions described below) and incubated at room temperature for 10 minutes. Next, 1 μL 2× enzyme/substrate solution was added to wells containing the test compound and reactions were initiated with the addition of 1 μL 300 uM ATP. The reactions were allowed to proceed for 1 hr, after which 2 μL Glo Reagent (Promega V9101) was added and incubated for 40 minutes. Next, 4 μL Kinase Detection Reagent was added and incubated for 30 minutes. Luminescence was recorded using an EnVision microplate reader. […] The compounds were evaluated at 11 concentrations to determine IC50.
(§3) The PC, DAG, and PS were dissolved in chloroform, combined, and dried in vacuo to a thin film. The lipids were hydrated to 20 mM in 50 mM MOPS pH 7.5, 100 mM NaCl, 5 mM MgCl2, and were freeze-thawed five times. The lipid suspension was extruded through a 100 nm polycarbonate filter eleven times. […] The liposome preparation was stored at 4° C. for as long as four weeks.
Baculovirus amplification was achieved using infected Sf9 cells at 1:1500 virus/cell ratios, and grown for 65 hours at 27° C. post-transfection.
(§4) The expression scale up for each protein was carried out in the Cellbag 50 L WAVE-Bioreactor System 20/50 from GE Healthcare Bioscience. 12 L of 2×10^6 cells/mL Sf9 cells (Expression System, Davis, Calif.) grown in ESF921 insect medium (Expression System) were infected with virus stock at 1:200 virus/cell ratios, and grown for 66-68 hours at 27° C. post-infection. The infected cell culture was harvested by centrifugation at 2000 rpm for 20 min 4° C. in a SORVALL® RC12BP centrifuge. The cell pellets were stored at −70° C. until purification.
The cells were lysed using nitrogen cavitation method with a nitrogen bomb (Parr Instruments), and the lysates were clarified by centrifugation. […] The three steps column chromatography included nickel affinity resin capture (i.e. HisTrap FF crude, GE Healthcare), followed by size exclusion chromatography (i.e. HiLoad 26/600 Superdex 200 prep grade, GE Healthcare for DGK-alpha, and HiPrep 26/600 Sephacryl S 300_HR, GE Healthcare for DGK-zeta). The third step was ion exchange chromatography, and differed for the two isoforms. DGKα was polished using Q-Sepharose anion exchange chromatography (GE Healthcare). DGKζ was polished using SP Sepharose cation exchange chromatography (GE Healthcare). The proteins were delivered at concentrations of ≥2 mg/mL. The formulation buffers were identical for both proteins: 50 mM Hepes, pH 7.2, 500 mM NaCl, 10% v/v glycerol, 1 mM TCEP, and 0.5 mM EDTA.

human DGKα [3] = molecular target: T2, human DGKα (Homo sapiens (Human), UniProt P23743); test: DGKα LIPGLO assay (extruded liposome substrate); type: biochemical
Method: as §1, with “B-D-glucopyranoside. […] The lipid substrate concentrations were […], 0.25 mM DAG, and 2.75 mM PC for the extruded liposome reactions.” for “B-D-glucopyranoside.”
as §2, with “The compound inhibition studies were carried out as follows: 50 nL droplets of each test compound (top concentration 10 mM with 11 point, 3-fold dilution series for each compound) solubilized in DMSO were transferred to wells of a white 1536 well plate (Corning 3725). A 5” for “A 5”
as §3
Human DGK-alpha-TVMV-His-pFBgate and human DCK-zeta-transcript variant-2-TVMV-His-pFBgate baculovirus samples were generated using the Bac-to-Bac baculovirus expression system (Invitrogen) according to the manufacturer's protocol. The DNA used for expression of DGK-alpha and DGK-zeta have SEQ ID NOs: 1 and 3, respectively. Baculovirus amplification was achieved using infected Sf9 cells at 1:1500 virus/cell ratios, and grown for 65 hours at 27° C. post-transfection.
as §4
Full length human DGKα and DGKζ, each expressed containing a TVMV-cleavable C-terminal Hexa-His tag sequence (SEQ ID NOs: 2 and 4, respectively) and produced as described above, were purified from Sf) baculovirus-infected insect cell paste. The cells were lysed using nitrogen cavitation method with a nitrogen bomb (Parr Instruments), and the lysates were clarified by centrifugation. […] The three steps column chromatography included nickel affinity resin capture (i.e. HisTrap FF crude, GE Healthcare), followed by size exclusion chromatography (i.e. HiLoad 26/600 Superdex 200 prep grade, GE Healthcare for DGK-alpha, and HiPrep 26/600 Sephacryl S 300_HR, GE Healthcare for DGK-zeta). The third step was ion exchange chromatography, and differed for the two isoforms.

human DGKζ [4] = molecular target: T1, human DGKζ; test: DGKζ assay (detergent/lipid micelle substrate); type: biochemical; conditions: detergent/lipid micelle substrate; read-out: DGKζ IC50
In short: (§5)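 Enzymes were baculovirus/Sf9 full-length human DGKα or DGKζ with His tag. The substrate was PS/DAG in octyl glucoside micelles, in MOPS pH 7.5 buffer with NaCl, MgCl2, CaCl2 and DTT.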

human DGKα [5] = molecular target: T2, human DGKα; test: biochemical; conditions: detergent/lipid micelle substrate; read-out: DGKα IC50
In short: as §5

T1 sequence (Q13574 other isoform, or with tags, fused parts or gaps): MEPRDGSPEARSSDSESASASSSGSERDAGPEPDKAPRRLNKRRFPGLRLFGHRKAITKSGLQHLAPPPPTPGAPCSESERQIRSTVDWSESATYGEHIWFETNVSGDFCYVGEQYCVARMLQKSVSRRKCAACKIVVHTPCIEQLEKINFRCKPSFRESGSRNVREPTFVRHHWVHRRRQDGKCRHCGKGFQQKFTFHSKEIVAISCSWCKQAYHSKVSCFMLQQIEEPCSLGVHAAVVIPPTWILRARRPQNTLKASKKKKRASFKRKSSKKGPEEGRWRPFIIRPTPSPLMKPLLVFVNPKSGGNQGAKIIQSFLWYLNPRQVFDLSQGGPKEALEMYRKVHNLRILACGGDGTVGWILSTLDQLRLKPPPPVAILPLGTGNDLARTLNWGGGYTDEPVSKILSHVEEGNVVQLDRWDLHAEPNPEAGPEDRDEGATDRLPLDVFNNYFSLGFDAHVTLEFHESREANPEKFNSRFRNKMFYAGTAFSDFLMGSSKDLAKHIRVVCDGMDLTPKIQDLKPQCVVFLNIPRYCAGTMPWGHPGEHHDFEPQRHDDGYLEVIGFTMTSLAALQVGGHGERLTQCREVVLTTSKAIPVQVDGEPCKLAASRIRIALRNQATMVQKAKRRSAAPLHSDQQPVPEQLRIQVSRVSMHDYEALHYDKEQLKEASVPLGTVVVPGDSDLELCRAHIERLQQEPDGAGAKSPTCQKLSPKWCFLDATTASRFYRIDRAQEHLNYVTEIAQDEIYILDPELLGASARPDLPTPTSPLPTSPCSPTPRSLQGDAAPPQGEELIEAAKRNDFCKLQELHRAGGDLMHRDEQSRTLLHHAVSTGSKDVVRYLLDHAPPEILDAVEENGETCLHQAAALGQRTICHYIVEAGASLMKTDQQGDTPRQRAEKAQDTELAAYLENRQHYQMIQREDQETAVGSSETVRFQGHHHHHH
T2 sequence (P23743 other isoform, or with tags, fused parts or gaps): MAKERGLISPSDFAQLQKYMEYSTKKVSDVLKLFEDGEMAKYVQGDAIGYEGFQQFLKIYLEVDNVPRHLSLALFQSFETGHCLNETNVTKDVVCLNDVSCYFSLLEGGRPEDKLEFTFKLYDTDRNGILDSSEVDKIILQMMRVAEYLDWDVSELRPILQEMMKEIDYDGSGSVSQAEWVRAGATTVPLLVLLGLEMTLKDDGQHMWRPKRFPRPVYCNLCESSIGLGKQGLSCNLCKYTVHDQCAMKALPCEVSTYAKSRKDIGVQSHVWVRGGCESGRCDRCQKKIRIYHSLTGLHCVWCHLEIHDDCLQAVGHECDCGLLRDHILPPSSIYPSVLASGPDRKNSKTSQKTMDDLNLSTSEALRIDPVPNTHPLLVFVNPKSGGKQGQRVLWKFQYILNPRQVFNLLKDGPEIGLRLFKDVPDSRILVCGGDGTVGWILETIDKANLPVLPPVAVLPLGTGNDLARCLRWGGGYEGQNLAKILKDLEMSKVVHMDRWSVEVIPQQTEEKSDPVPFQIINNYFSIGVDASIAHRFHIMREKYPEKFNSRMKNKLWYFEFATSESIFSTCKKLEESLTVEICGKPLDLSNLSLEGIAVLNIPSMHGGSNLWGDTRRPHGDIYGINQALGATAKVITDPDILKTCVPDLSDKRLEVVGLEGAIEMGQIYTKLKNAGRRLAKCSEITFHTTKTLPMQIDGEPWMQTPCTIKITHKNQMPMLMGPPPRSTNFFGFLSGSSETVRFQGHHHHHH

Row | SMILES | pIC50 [1] | pIC50 (human DGKζ [2]) | pIC50 (human DGKα [3]) | pIC50 (human DGKζ [4]) | pIC50 (human DGKα [5]) | pIC50 ([1]; Homo sapiens, Raji)
1 | COc1ccccc1C(c1ccc(F)cc1)N1CCN(c2c(C#N)c(=O)n(C)c3ccc(Br)nc23)CC1 (single isomer, unassigned) [Example 14, 6-bromo-4-{4-[(4-fluorophenyl)(2-methoxyphenyl)methyl]piperazin-1-yl}-1-methyl-2-oxo-1,2-dihydro-1,5-naphthyridine-3-carbonitrile] | 7.59 | 5.49 | 5.33 | < 3.62 | 5.92 | 
2 | COc1cc(F)ccc1C(c1ccc(F)cc1)N1CCN(c2c(C#N)c(=O)n(C)c3ccc(Br)nc23)CC1 (single isomer, unassigned) [Example 16, 6-bromo-4-{4-[(4-fluoro-2-methoxyphenyl)(4-fluorophenyl)methyl]piperazin-1-yl}-1-methyl-2-oxo-1,2-dihydro-1,5-naphthyridine-3-carbonitrile] |  | 4.57 | 5.37 | < 3.62 | 5.19 | 7.68
3 | CC(c1ccc(F)cc1)N1CCN(c2c(C#N)c(=O)n(C)c3ccc(Br)nc23)CC1 (single isomer, unassigned) [Example 23, 6-bromo-4-{4-[1-(4-fluorophenyl)ethyl]piperazin-1-yl}-1-methyl-2-oxo-1,2-dihydro-1,5-naphthyridine-3-carbonitrile] | 7.39 | 4.89 | 5.72 | < 3.62 | 6.21 | 
4 | CC(c1ccc(F)cc1)N1CCN(c2c(C#N)c(=O)n(C)c3ccc(Br)nc23)CC1 (single isomer, unassigned) [Example 24, 6-bromo-4-{4-[1-(4-fluorophenyl)ethyl]piperazin-1-yl}-1-methyl-2-oxo-1,2-dihydro-1,5-naphthyridine-3-carbonitrile] | 7.92 | 4.05 | 6.82 | < 3.62 | 7.47 | 
5 | COc1ccc2c(n1)c(N1CCN(C(c3ccc(F)cc3)c3ccccc3O)CC1)c(C#N)c(=O)n2C (centres unmarked) [Example 104, 4-(4-((4-fluorophenyl)(2-hydroxyphenyl)methyl)piperazin-1-yl)-6-methoxy-1-methyl-2-oxo-1,2-dihydro-1,5-naphthyridine-3-carbonitrile] |  | 6.11 | 6.13 |  |  | 6.36
6 | O=c1c([N+](=O)[O-])c(N2CCN(C(c3ccccc3)c3ccccc3)CC2)c2ncccc2n1CCC1OCCCO1 [Example 166, 1-(2-(1,3-dioxan-2-yl)ethyl)-4-(4-benzhydrylpiperazin-1-yl)-3-nitro-1,5-naphthyridin-2(1H)-one] |  | 3.64 | 3.68 |  |  | 5.42
7 | C=CCn1c(=O)c([N+](=O)[O-])c(N2CCN(C(c3ccccc3)c3ccccc3)CC2)c2ncccc21 [Example 176, 1-all-4-(4-benzhydrylpiperazin-1-yl)-3-nitro-1,5-naphthyridin-2(1H)-one] |  | 4.57 | < 3.62 |  |  | 5.52
8 | Cc1ccc2c(n1)c(N1CCN(C(c3ccc(F)cc3)c3ccc(F)cc3)CC1)c(C(=O)C(F)(F)F)c(=O)n2C [Example 228, 4-(4-(bis(4-fluorophenyl)methyl)piperazin-1-yl)-1,6-dimethyl-3-(2,2,2-trifluoroacetyl)-1,5-naphthyridin-2(1H)-one] |  | 5.01 | < 3.62 | < 3.62 |  | 6.96
9 | Cn1c(=O)c([N+](=O)[O-])c(N2CCN(C(C)(C)c3ccc(F)cc3)CC2)c2nc(C#N)ccc21 [Example 260, 8-{4-[2-(4-fluorophenyl)propan-2-yl]piperazin-1-yl}-5-methyl-7-nitro-6-oxo-5,6-dihydro-1,5-naphthyridine-2-carbonitrile] |  | 5.28 | 5.80 |  | 6.46 | 7.74
10 | Cn1c(=O)c(C#N)c(N2CCN(Cc3ccc(F)cc3)CC2)c2nc(Cl)ccc21 [Example 308, 6-chloro-4-{4-[(4-fluorophenyl)methyl]piperazin-1-yl}-1-methyl-2-oxo-1,2-dihydro-1,5-naphthyridine-3-carbonitrile] |  | 4.89 | 6.02 |  | 6.72 | 6.68
11 | CCn1ccc2c(CN3CCN(c4c(C#N)c(=O)n(C)c5cccnc45)CC3)cccc21 [Example 334, 4-{4-[(1-ethyl-1H-indol-4-yl)methyl]piperazin-1-yl}-1-methyl-2-oxo-1,2-dihydro-1,5-naphthyridine-3-carbonitrile] |  | 4.57 | 5.77 |  |  | 6.27
12 | Cn1c(=O)c(C#N)c(N2CCN(C(c3ccccc3)c3ccccc3O)CC2)c2ncccc21 (centres unmarked) [Example 349, 4-{4-[(2-hydroxyphenyl)(phenyl)methyl]piperazin-1-yl}-1-methyl-2-oxo-1,2-dihydro-1,5-naphthyridine-3-carbonitrile] |  | 4.49 | 5.89 |  |  | 5.85
13 | Cn1c(=O)c(C#N)c(N2CCN(C(c3ccccc3)c3ccccc3)CC2)c2nc(Cl)ccc21 [Example 358, 6-chloro-4-[4-(diphenylmethyl)piperazin-1-yl]-1-methyl-2-oxo-1,2-dihydro-1,5-naphthyridine-3-carbonitrile] |  | < 3.62 | < 3.62 |  |  | 5.19
14 | Cn1c(=O)cc(N2CCN(C(c3ccc(F)cc3)c3ccc(F)cc3)CC2)c2ncccc21 [Example 426, 4-(4-(bis(4-fluorophenyl)methyl)piperazin-1-yl)-1-methyl-1,5-naphthyridin-2(1H)-one] |  | < 3.62 | 3.77 |  |  | 4.70
